The source of these data is ChEMBL document CHEMBL5370598, “[3H]UR-JG102-A Radiolabeled Cyclic Peptide with High Affinity and Excellent Selectivity for the Neuropeptide Y Y4 Receptor” (J Med Chem, 2023).

In general, Kd refers to the constant that tells how readily two partners part at equilibrium. Read a low Kd as a tighter complex.

Assay [1] concerns the target T1, Neuropeptide Y receptor type 4 (Homo sapiens, UniProt P50391). The experiment in a line: Binding affinity to human Y4R under 150 mM sodium condition.
The target in assay [2] is T1, Neuropeptide Y receptor type 4. The experiment in a line: Binding affinity to human Y4R under sodium free condition.

T1 sequence (P50391 whole entry): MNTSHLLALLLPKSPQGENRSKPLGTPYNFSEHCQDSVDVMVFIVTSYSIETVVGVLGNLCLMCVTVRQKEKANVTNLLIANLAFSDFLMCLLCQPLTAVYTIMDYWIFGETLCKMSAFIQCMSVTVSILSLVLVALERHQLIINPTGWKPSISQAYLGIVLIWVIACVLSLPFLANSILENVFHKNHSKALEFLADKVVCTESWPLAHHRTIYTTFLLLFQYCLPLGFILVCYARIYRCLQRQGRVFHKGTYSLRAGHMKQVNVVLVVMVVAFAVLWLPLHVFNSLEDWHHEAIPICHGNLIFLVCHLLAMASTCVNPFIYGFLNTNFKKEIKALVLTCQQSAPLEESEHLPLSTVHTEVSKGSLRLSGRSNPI

For `[3H]CC([3H])C(=O)NCCCC[C@H](NC(=O)[C@H](CC(C)C)NC(=O)[C@@H]1CCCN1C(=O)[C@H](C)N)C(=O)N1CCC[C@H]1C(=O)N[C@H](C(=O)N[C@@H](Cc1ccc(O)cc1)C(=O)N1CCC[C@H]1C(=O)NCC(=O)N[C@@H](CC(=O)O)C(=O)N[C@@H](CC(N)=O)C(=O)N[C@@H](C)C(=O)N[C@H](C(=O)N1CCC[C@H]1C(=O)N[C@@H](CCC(=O)O)C(=O)N[C@@H](CCC(N)=O)C(=O)NC(CCCC)C(=O)N[C@@H](C)C(=O)N[C@@H](CCC(N)=O)C(=O)N[C@@H](Cc1ccc(O)cc1)C(=O)N[C@@H](C)C(=O)N[C@@H](C)C(=O)N[C@@H](CC(N)=O)C(=O)N[C@@H](CC(C)C)C(=O)N[C@@H](CCCNC(=N)N)C(=O)N[C@@H](CCCNC(=N)N)C(=O)N[C@@H](Cc1ccc(O)cc1)C(=O)N[C@H](C(=O)N[C@@H](CC(N)=O)C(=O)NC(CCCC)C(=O)N[C@@H](CC(C)C)C(=O)N[C@H](C(=O)N[C@@H](CCCNC(=N)N)C(=O)N1CCC[C@H]1C(=O)N[C@@H](CCCNC(=N)N)C(=O)N[C@@H](Cc1ccc(O)cc1)C(N)=O)[C@@H](C)O)[C@@H](C)CC)[C@@H](C)O)C(C)C` (some centres not stated), the Kd in assay [1] was found to be 20.9 nM; in assay [2], 1.1 nM.
